Structures are written as SMILES.

Data set [1] concerns p53-dependent reporter expression (p21 and PUMA promoter elements). In words: p21 and PUMA expression / transcriptional reporter assay based on p21 and PUMA promoter elements. To be noted: comparison of stictic acid and PRIMA-1. It is filed as cell-based, human. From the text: (§1) Our previous p53 reactivation assays focused on p53-driven expression of the canonical p53 target genes p21 and PUMA (Wassman et al., 2013). However, there is significant evidence that neither p21 nor PUMA expression predict p53 anti-tumor activity (Hock & Vousden, 2012; Li et al., 2012; Valente et al., 2013). Indeed, our results comparing effects of PRIMA-1 and stictic acid support this view. […] We now use p21 and PUMA expression as an independent transcription assay for p53 cancer mutant reactivation, but not the primary selection criterion. We changed to p53-dependent cell killing (or proliferation arrest) as our main measure of efficacy because our long-term goal is anti-tumor drugs.
An independent test for p53 cancer mutant reactivation is the well-established transcriptional reporter assay based on p21 and PUMA promoter elements (Wassman, et al., 2013). As above, the magnitude of reactivated p53-dependent transcription is not considered relevant for a compound's potency in cancer cell killing.

The next data set deals with p53 cancer mutants. In words: p53-dependent cell killing (or proliferation arrest) in Saos-2 cells expressing p53 cancer mutants. The data set is classed as cell-based, human. As for the experimental part:
FIG. 3C is a graph of dose response curves for compounds 33BAZ and 27UDP using four different p53 cancer mutants: R175H, G245S, R248W, and R273H. Experimental conditions are as in FIG. 3A.
FIG. 3D is a panel of graphs of broad spectrum activity for four other compounds using four different p53 cancer mutants: R175H, G245S, R248W, and R273H. Experimental conditions are as in FIG. 3C, but a single dose was assayed: 27VFS (20 μM), 35LWZ (50 μM), 27WT9 (10 μM), and 26RQZ (10 μM).
as §1, with “drugs. […]” for “drugs.”
(§2) Our primary screen is the p53 cancer mutant R175H, which is the single most prevalent human cancer mutation. Active compounds were re-evaluated using an independent cell line expressing a different p53 cancer mutant, G245S.

Another data set addresses p53 R175H (Homo sapiens, UniProt P04637, R175H). As to conditions: cited from earlier work.
The next data set concerns the target T1, p53 cancer mutant R175H (Homo sapiens, UniProt P04637, R175H).
T1 construct: expressed in transfected cells; host or cells: Saos-2 (p53null) human osteosarcoma cells
Nature of the data set: p53 reactivation assay (cell killing / proliferation arrest) in Saos-2 cells expressing p53 cancer mutant R175H. It is filed as cell-based. As to conditions: 50 μM pre-heated PRIMA-1, 72 h, Saos-2 cells (FIG. 5). As for the experimental part: (§3) FIG. 5 is a graph showing that PRIMA-1 acts through cysteine 124 in p53. p53null Saos-2 cells expressing wild type p53, or the indicated p53 mutants, were treated with 50 μM pre-heated PRIMA-1 (“+”, left bar) or the medium without PRIMA-1 (DMSO, “−”, right bar) for 72 h. The increase in cell number during 72 h of growth is shown. Standard deviations represent 4 independent samples (Wassman, et al., 2013).
(§4) The increase in cell number during 72 h of growth is shown. As expected, the p53 cancer mutant R175H was activated by PRIMA-1. Mutating cysteine 124 to alanine blocked PRIMA-1 induced cancer mutant reactivation.
The basis for our primary assay is that cancer cells cannot tolerate active p53, stop proliferation, and eventually die. Expression of functional p53 in p53null Saos-2 osteosarcoma cells blocks their proliferation; expression of p53 cancer mutants has no effect (Wassman et al., 2013) (FIG. 5). Importantly, compounds that reactivate p53 cancer mutants specifically block proliferation of Saos-2 cells expressing p53 cancer mutants, but have no effect on growth of p53null cells at the same concentration (FIG. 3). […]
as §2

For data set [2], the target named is T2, R175H-p53 with A124 (cysteine 124 to alanine) (Homo sapiens, UniProt P04637, C124A/R175H).
T2 construct: expressed in transfected cells; host or cells: Saos-2 (p53null) human osteosarcoma cells
Nature of the data set: PRIMA-1 treatment of Saos-2 cells expressing R175H-p53 with cysteine 124 changed to alanine. It is filed as cell-based. As to conditions: 50 μM pre-heated PRIMA-1, 72 h, Saos-2 cells (FIG. 5). As for the experimental part:
as §3
Although the region around residue C124 is enriched for cancer rescue mutations, changes in position 124 have never been found, nor were they predicted by our SVM classifier, to reactivate p53 cancer mutants. Indeed, directed saturation mutagenesis of position 124 in the context of the R175H p53 cancer mutation explored all single amino acid changes at C124 and confirmed the absence of any genetic mutation rescue activity at this position. We could therefore test the computer predictions for a role of C124 in covalent drug binding in vivo by changing C124 into alanine to prevent the hypothetical thiol-mediated link with MQ.
as §4

Data set [3] deals with parental Saos-2 (p53^null) cells. In words: Cell proliferation of parental Saos-2 (p53null) cells, CellTiter-Glo. The data set is classed as cell-based. As to conditions: cultured 3 days, max. 200 μM, Zinc Leads Now compounds (FIG. 3A). How it is done:
FIG. 3A is a graph of reactivation activities of various compounds. Saos-2 cells expressing no p53 (p53^null), or expressing one of the cancer mutants p53-R175H or p53-G245S, were cultured for 3 days in the presence of different concentrations of compounds that had been selected from the Zinc Leads Now database, version of January, 2011, by the computational methods described below. The p53 reactivation compounds shown correspond to FIG. 1. Cell numbers were measured using the CellTiter-Glo® reagent. […] Data are presented as the standard error of the mean (n=3). Note that as of this writing eight compounds have been tested on the R175H mutant only (32CTM, 28NZ6, 27TGR, 27VFS, 35LWZ, 36EB5, 32LDE, and 32JCB).
FIG. 3B is a graph of reactivation activities of various compounds. Experimental conditions are as in FIG. 3A, but compounds were selected from the Chembridge Express Pick Library 2012 database, by the computational methods described below. The p53 reactivation compounds shown correspond to FIG. 2.
The basis for our primary assay is that cancer cells cannot tolerate active p53, stop proliferation, and eventually die. […]
as §2

With `COc1cc(C)c2c(c1C=O)Oc1c(c(C)c(O)c3c1C(O)OC3=O)OC2=O` (centres unmarked) [stictic acid], in data set [1], the “restoring p21 and PUMA expression in p53 cancer mutants” value is “significantly better than PRIMA-1”. The “p53 reactivation in biological assays” value with p53 cancer mutants (one of 45 screened NCI DTP compounds) is reported as “proved to be a p53 reactivation compound”.

Turning to `C/C(=N\NC(=S)N1CCC1)c1ccccn1` [NSC319726], the “allele specificity of p53 mutant reactivation” value at p53 R175H is recorded as “R175H allele-specific”.

On to `O=C1C2CCN(CC2)C1(CO)CO` [PRIMA-1], for which the “effect on cells expressing the inactive R175H p53” value on p53 cancer mutant R175H is “reactivation and induction of cell death”. The “PRIMA-1 effects after introduction of A124 in R175H-p53” value in data set [2] is “completely eliminated”. For the same compound, in data set [3], the “highest compound concentration that did not significantly affect cell proliferation of the parental Saos-2 (p53null) cells” value came to 50 µM. Also, the “p53-dependent killing/arresting of cells” value in the data set with p53 cancer mutants (comparison of PRIMA-1 and stictic acid) is “considerably more potent”.

In the case of `CC(=NNC(=S)N(C)C)c1ccccn1` [NSC319725], on p53 R175H, the “allele specificity of p53 mutant reactivation” value is on record as “R175H allele-specific”.

Source of the values: US9737546B2, “Small molecules to enhance P53 activity” (THE REGENTS OF THE UNIVERSITY OF CALIFORNIA, priority 2013, dated 2017).
